Measured values reported in patent publication US8691865B2 (AbbVie Inc., priority 2008, dated 2014).
Read-outs that look alike come from different tables or passages of the source.

Biological target: human Cav2.2 (Homo sapiens, UniProt Q00975)
Assay: Assessment of calcium channel activity using FLIPR (Ca2+ influx in IMR32 cells)
Type: cell-based
Procedure, shortened: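 IC50 values derive from nonlinear sigmoidal fitting of percent inhibition, relative to inhibitor-free activity, of Ca2+ influx read by FLIPR. Cells were IMR32 human neuroblastoma, plated at 1−1.2×10^5 per well and grown 48 h at 37 °C.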

[1] = read-out: IC50 (μM) or percent inhibition (* indicates 3 minute incubation, otherwise 60 minute), IC50, 60 minute pre-incubation with compound, IMR32 cells, 80 mM KCl depolarization

human Cav2.2, sequence (Q00975 whole entry): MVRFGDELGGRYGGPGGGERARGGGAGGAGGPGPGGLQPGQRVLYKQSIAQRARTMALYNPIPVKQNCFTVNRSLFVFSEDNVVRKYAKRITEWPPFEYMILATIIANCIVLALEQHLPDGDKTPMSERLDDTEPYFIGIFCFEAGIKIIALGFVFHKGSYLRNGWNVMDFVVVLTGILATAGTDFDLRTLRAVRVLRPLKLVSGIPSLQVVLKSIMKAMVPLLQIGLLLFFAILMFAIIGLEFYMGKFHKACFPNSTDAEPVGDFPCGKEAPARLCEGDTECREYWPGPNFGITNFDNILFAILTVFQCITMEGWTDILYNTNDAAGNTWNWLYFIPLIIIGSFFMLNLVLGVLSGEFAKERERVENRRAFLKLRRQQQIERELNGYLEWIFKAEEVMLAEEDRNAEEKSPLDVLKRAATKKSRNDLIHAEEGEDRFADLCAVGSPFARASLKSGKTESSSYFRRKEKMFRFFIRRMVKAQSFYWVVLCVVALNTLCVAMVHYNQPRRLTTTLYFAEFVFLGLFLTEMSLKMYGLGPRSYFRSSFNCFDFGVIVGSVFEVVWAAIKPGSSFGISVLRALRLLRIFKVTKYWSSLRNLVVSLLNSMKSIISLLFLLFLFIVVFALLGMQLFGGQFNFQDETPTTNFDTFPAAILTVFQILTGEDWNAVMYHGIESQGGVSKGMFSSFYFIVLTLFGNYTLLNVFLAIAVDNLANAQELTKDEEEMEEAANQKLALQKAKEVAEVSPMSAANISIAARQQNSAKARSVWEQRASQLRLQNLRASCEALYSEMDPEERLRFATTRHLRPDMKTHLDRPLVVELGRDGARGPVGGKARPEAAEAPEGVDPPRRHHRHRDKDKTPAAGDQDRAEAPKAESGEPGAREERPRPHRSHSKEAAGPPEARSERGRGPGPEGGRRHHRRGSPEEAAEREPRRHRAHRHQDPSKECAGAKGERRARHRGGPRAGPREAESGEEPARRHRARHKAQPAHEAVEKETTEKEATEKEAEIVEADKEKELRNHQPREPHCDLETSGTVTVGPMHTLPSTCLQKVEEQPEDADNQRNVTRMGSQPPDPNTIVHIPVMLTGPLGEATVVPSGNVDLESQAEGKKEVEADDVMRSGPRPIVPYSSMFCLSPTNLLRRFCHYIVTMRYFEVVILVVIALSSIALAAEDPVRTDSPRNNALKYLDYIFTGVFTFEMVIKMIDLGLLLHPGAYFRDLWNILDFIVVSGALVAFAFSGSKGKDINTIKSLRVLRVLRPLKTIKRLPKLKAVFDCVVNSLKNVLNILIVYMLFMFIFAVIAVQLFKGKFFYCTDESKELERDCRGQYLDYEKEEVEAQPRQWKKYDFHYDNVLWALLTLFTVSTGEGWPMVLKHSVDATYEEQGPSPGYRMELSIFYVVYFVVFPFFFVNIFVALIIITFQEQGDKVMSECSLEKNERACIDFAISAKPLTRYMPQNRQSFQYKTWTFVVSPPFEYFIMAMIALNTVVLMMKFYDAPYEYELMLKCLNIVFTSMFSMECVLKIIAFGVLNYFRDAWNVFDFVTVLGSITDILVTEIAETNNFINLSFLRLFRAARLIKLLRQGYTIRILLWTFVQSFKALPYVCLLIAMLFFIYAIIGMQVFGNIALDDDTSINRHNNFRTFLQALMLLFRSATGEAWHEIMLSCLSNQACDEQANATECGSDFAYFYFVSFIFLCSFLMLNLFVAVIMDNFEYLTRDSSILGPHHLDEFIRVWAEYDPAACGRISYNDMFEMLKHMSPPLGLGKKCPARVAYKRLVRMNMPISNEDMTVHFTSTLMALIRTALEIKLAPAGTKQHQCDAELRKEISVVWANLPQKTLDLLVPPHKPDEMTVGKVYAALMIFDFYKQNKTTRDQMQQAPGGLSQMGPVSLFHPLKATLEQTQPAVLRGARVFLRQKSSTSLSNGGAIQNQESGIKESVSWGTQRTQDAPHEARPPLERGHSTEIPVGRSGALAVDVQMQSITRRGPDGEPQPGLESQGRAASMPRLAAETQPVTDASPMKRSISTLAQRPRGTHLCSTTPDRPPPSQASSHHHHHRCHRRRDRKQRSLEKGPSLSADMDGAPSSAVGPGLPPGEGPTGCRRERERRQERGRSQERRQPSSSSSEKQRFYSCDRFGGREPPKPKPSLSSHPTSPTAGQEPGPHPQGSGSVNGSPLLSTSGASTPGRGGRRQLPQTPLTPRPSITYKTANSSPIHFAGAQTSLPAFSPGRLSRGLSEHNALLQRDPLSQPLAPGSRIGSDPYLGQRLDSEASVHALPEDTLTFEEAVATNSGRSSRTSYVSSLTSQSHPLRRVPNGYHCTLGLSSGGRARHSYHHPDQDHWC
human Cav2.2, sequence (P54289 25-956 partner limits assumed): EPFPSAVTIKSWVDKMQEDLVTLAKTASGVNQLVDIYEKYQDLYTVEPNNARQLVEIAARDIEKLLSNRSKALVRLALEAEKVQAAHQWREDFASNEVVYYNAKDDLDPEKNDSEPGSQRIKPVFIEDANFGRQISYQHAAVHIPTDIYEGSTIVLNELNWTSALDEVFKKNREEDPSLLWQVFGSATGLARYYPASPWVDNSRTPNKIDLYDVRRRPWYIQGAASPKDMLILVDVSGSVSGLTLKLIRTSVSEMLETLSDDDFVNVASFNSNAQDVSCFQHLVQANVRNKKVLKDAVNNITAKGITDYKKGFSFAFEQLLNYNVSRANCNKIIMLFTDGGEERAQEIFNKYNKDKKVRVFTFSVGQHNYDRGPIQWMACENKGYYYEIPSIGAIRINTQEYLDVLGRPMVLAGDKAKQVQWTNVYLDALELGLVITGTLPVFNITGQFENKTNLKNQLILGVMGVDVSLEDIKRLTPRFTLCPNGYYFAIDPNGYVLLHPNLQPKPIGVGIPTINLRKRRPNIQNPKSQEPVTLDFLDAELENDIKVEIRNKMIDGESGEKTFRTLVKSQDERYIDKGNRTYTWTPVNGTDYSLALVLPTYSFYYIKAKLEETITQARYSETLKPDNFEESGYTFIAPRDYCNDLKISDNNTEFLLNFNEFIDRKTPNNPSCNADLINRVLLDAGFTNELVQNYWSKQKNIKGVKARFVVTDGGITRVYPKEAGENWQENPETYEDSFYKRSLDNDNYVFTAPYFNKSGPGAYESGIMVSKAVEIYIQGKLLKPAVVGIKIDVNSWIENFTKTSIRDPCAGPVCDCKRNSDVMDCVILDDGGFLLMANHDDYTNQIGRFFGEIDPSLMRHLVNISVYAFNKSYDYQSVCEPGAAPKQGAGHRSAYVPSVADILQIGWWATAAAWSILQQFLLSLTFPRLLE
human Cav2.2, sequence (P54289 957-1103 partner limits assumed): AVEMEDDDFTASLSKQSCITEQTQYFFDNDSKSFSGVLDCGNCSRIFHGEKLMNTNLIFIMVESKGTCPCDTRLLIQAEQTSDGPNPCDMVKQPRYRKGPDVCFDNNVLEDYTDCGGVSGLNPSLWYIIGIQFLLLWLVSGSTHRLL
human Cav2.2, sequence (P54284 whole entry partner): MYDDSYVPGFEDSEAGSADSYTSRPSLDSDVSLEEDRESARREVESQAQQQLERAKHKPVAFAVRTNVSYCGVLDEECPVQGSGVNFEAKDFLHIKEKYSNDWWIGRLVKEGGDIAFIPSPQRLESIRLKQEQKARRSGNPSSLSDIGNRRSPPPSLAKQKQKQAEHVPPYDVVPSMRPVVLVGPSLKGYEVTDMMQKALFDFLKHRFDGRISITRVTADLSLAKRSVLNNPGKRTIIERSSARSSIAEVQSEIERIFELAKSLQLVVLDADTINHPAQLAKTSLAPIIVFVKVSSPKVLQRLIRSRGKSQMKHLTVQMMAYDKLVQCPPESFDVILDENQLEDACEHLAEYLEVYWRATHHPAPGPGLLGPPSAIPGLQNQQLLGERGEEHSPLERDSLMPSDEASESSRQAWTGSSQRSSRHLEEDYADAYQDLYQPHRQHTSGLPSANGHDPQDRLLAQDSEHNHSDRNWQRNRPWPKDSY

SMILES	IC50	IC50 [1]
CC(C)C[C@H](N)C(=O)N[C@@H]1CC[C@H]2CN(S(=O)(=O)c3cccc(C(F)(F)F)c3)C[C@H]21 [Example 184, N^1-((3aS,4R,6aR)-2-{[3-(trifluoromethyl)phenyl]sulfonyl}octahydrocyclopenta[c]pyrrol-4-yl)-L-leucinamide]		1.45 µM
O=C(N[C@H]1CC[C@@H]2CN(S(=O)(=O)c3cccc(C(F)(F)F)c3)C[C@@H]21)[C@@H]1CCCN1 [Example 387, N-((3aR,4S,6aS)-2-{[3-(trifluoromethyl)phenyl]sulfonyl}octahydrocyclopenta[c]pyrrol-4-yl)-L-prolinamide]	5.87 µM	
O=C(N[C@H]1CC[C@H]2CN(Cc3cc(C(F)(F)F)cc(C(F)(F)F)c3)C[C@H]21)C(C1CCCCC1)C1CCCCC1 [Example 59, N-{(3aS,4S,6aR)-2-[3,5-bis(trifluoromethyl)benzyl]octahydrocyclopenta[c]pyrrol-4-yl}-2,2-dicyclohexylacetamide]		0.51 µM
CCC[C@H](NC(=O)OC(C)C)C(=O)N[C@H]1CC[C@@H]2CN(c3ccc(C(F)(F)F)cn3)C[C@@H]21 [Example 263, isopropyl(S)-1-oxo-1-((3aR,4S,6aS)-2-(5-(trifluoromethyl)pyridin-2-yl)octahydrocyclopenta[c]pyrrol-4-ylamino)pentan-2-ylcarbamate]	> 30 µM	
O=C(N[C@H]1CC[C@H]2CNC[C@H]21)C(C1CCCCC1)C1CCCCC1 [Example 53, 2,2-dicyclohexyl-N-[(3aS,4S,6aR)-octahydrocyclopenta[c]pyrrol-4-yl]acetamide]	8.54 µM	
CC(C)(C)[C@H](N)C(=O)N[C@H]1CC[C@@H]2CN(c3cccc(C(F)(F)F)n3)C[C@@H]21 [Example 591, 3-methyl-N-{(3aR,4S,6aS)-2-[6-(trifluoromethyl)pyridin-2-yl]octahydrocyclopenta[c]pyrrol-4-yl}-L-valinamide]	0.5 µM	
C[C@H](C(=O)N[C@H]1CC[C@H]2CN(Cc3ccccc3)C[C@H]21)c1cccc(C(=O)c2ccccc2)c1 (relative stereo) [Example 12, (2S)-2-(3-benzoylphenyl)-N-[(3aS*,4S*,6aR*)-2-benzyloctahydrocyclopenta[c]pyrrol-4-yl]propanamide]	1.22 µM	
O=C(CCCC(c1ccc(F)cc1)c1ccc(F)cc1)N[C@@H]1CC[C@H]2CN(Cc3cccc(C(F)(F)F)c3)C[C@H]21 (relative stereo) [Example 142, 5,5-bis(4-fluorophenyl)-N-{(3aS*,4R*,6aR*)-2-[3-(trifluoromethyl)benzyl]octahydrocyclopenta[c]pyrrol-4-yl}pentanamide]		0.86 µM
O=C(N[C@H]1CC[C@H]2CN(C(c3ccccc3)c3ccccc3)C[C@H]21)C(C1CCCCC1)C1CCCCC1 [Example 120, N-[(3aS,4S,6aR)-2-benzhydryloctahydrocyclopenta[c]pyrrol-4-yl]-2,2-dicyclohexylacetamide]		3.44 µM
O=C(N[C@H]1CC[C@H]2CN(Cc3cccc(C(F)(F)F)c3)C[C@H]21)C1CCCCCC1 (relative stereo) [Example 128, N-{(3aS*,4S*,6aR*)-2-[3-(trifluoromethyl)benzyl]octahydrocyclopenta[c]pyrrol-4-yl}cycloheptanecarboxamide]	0.56 µM	
CCC[C@H](NCC(C)(C)C)C(=O)N[C@@H]1CC[C@H]2CN(S(=O)(=O)c3ccc(C(F)(F)F)cc3)C[C@H]21 [Example 260, N^2-neopentyl-N^1-((3aS,4R,6aR)-2-{[4-(trifluoromethyl)phenyl]sulfonyl}octahydrocyclopenta[c]pyrrol-4-yl)-L-norvalinamide]	1.11 µM	
CC(C)C[C@@H](C(=O)N[C@H]1CC[C@H]2CN(Cc3cccc(C(F)(F)F)c3)C[C@H]21)N(C)C [Example 509, N^2,N^2-dimethyl-N^1-{(3aS,4S,6aR)-2-[3-(trifluoromethyl)benzyl]octahydrocyclopenta[c]pyrrol-4-yl}-L-leucinamide]		4.55 µM
O=C(CC(O)C(F)(F)F)N[C@H]1CC[C@@H]2CN(c3cccc(C(F)(F)F)n3)C[C@@H]21 (stereo partly drawn) [Example 586, 4,4,4-trifluoro-3-hydroxy-N-{(3aR,4S,6aS)-2-[6-(trifluoromethyl)pyridin-2-yl]octahydrocyclopenta[c]pyrrol-4-yl}butanamide]	2.56 µM	

Other lines, results leading:

IC50	IC50 [1]	SMILES
2.11 µM		CCCC[C@H](NC)C(=O)N[C@H]1CC[C@@H]2CN(c3ccc(C(F)(F)F)cn3)C[C@@H]21 [Example 601, N^2-methyl-N-{(3aR,4S,6aS)-2-[5-(trifluoromethyl)pyridin-2-yl]octahydrocyclopenta[c]pyrrol-4-yl}-L-norleucinamide]
3.51 µM		FC(F)(F)c1cccc(N2C[C@H]3CC[C@H](NCc4nc(-c5ccc(Cl)cc5)c[nH]4)[C@H]3C2)n1 [Example 745, (3aR,4S,6aS)-N-{[4-(4-chlorophenyl)-1H-imidazol-2-yl]methyl}-2-[6-(trifluoromethyl)pyridin-2-yl]octahydrocyclopenta[c]pyrrol-4-amine]
1.62 µM		FC(F)(F)c1cccc(N2C[C@H]3CC[C@H](NCc4[nH]c5ccccc5c4Cl)[C@H]3C2)n1 [Example 679, (3aR,4S,6aS)-N-[(3-chloro-1H-indol-2-yl)methyl]-2-[6-(trifluoromethyl)pyridin-2-yl]octahydrocyclopenta[c]pyrrol-4-amine]
1.8 µM		CN[C@@H](CC(C)C)C(=O)N[C@H]1CC[C@@H]2CN(c3ccc(OC(F)(F)F)c(F)c3)C[C@@H]21 [Example 657, N-{(3aR,4S,6aS)-2-[3-fluoro-4-(trifluoromethoxy)phenyl]octahydrocyclopenta[c]pyrrol-4-yl}-N^2-methyl-L-leucinamide]
6.4 µM		N[C@H]1CC[C@@H]2CN(c3ccc(C(F)(F)F)cc3)C[C@@H]21 [Example 607, (3aR,4S,6aS)-2-[4-(trifluoromethyl)phenyl]octahydrocyclopenta[c]pyrrol-4-amine]
6.18 µM		O=C(Nc1ccc(F)cc1)N[C@H]1CC[C@@H]2CN(c3cccc(C(F)(F)F)n3)C[C@@H]21 [Example 709, 1-(4-fluorophenyl)-3-{(3aR,4S,6aS)-2-[6-(trifluoromethyl)pyridin-2-yl]octahydrocyclopenta[c]pyrrol-4-yl}urea]
1.16 µM		FC(F)(F)c1cccc(N2C[C@H]3CC[C@H](NCc4coc(-c5ccc(Cl)cc5)n4)[C@H]3C2)n1 [Example 741, (3aR,4S,6aS)-N-{[2-(4-chlorophenyl)-1,3-oxazol-4-yl]methyl}-2-[6-(trifluoromethyl)pyridin-2-yl]octahydrocyclopenta[c]pyrrol-4-amine]
1.19 µM		CN[C@@H](CC(C)C)C(=O)N[C@H]1CC[C@@H]2CN(c3cccc(C(F)(F)F)c3)C[C@@H]21 [Example 606, N^2-methyl-N-{(3aR,4S,6aS)-2-[3-(trifluoromethyl)phenyl]octahydrocyclopenta[c]pyrrol-4-yl}-L-leucinamide]
2.99 µM		O=C(Nc1ccc(Cl)cc1)N[C@H]1CC[C@@H]2CN(c3cccc(C(F)(F)F)n3)C[C@@H]21 [Example 713, 1-(4-chlorophenyl)-3-{(3aR,4S,6aS)-2-[6-(trifluoromethyl)pyridin-2-yl]octahydrocyclopenta[c]pyrrol-4-yl}urea]
22.3 µM		CN[C@@H](CC(C)C)C(=O)N[C@H]1CC[C@@H]2CN(c3ccc(C(F)(F)F)nn3)C[C@@H]21 [Example 724, N^2-methyl-N-{(3aR,4S,6aS)-2-[6-(trifluoromethyl)pyridazin-3-yl]octahydrocyclopenta[c]pyrrol-4-yl}-L-leucinamide]
